Experimental data taken from patent US4719211A, “2,3,4,9-tetrahydro-2-heteroarylalkyl-1H-pyrido(3,4-B)indoles having antihypertensive properties” (American Home Products Corporation, priority 1986, dated 1988).
Structures can show the parent of a compound that is named as a salt.

Assays:
rats = assay: Conditioned avoidance response procedure (response lever); assay type: in vivo; details: ip, rat, i.p.; for ED50: read-out: AB50 (dose producing 50% block in avoidance responding)
Protocol: In conditioned avoidance response type procedures, the effect of the drug on the subject animals previously trained ability to avoid and/or escape a shock is measured. […] If the compound blocks the subject animal's ability to escape the shock, then the compound is judged to have a sedative effect.
In this procedure, rats trained previously are placed in plexiglass experimental chambers equipped with a response lever, house light, and sonalert. A steel grid floor is wired for presentation of electric shock. Each trial consists of a fifteen-second warning tone (conditioned stimulus), continuing for an additional fifteen seconds accompanied by electric shock, (unconditioned stimulus). The rat can terminate a trial at any point by depression of the response lever. A response during the initial fifteen-second warning tone ends the trial before shock delivery and is considered an avoidance response, while a response occuring during shock delivery is an escape response. Trials are presented on a variable interval schedule of two minutes. The session consists of sixty trials. Animals are run two to three times weekly with control sessions always preceding a drug run, and with at least one day intervening, compounds are administered i.p. (p.o., s.c.) at appropriate pre-treatment times to a minimum of five to six rats at each dose level over a range of doses.
The following experimental parameters are recorded by computer: (1) the number of intertrial interval responses, (2) the number of avoidance responses, (3) the number of escape responses, and (4) the number of trials in which no response occured.
Response counts are summed over all subjects at a given dose. […] This number is expressed as a percentage of the total trials. Control performance is assumed to be 100% for avoidance and escape responding and the dose calculated to produce a 50% block in avoidance responding (AB50) is obtained from a dose-effect regression line fitted by the method of least squares. […] If both AB50 's and EB20 's can be calculated, a dose ratio can be determined according to the following formula: […]

[1] = tested on: spontaneously hypertensive rat (SHR); assay: Antihypertensive effect: change in systolic blood pressure in spontaneously hypertensive rats (tail plethysmography); assay type: in vivo
Protocol: The systolic blood pressure of male conscious, spontaneously hypertensive rat (SHR) (Taconic Farms) is measured by indirect tail plethysmography using a system designed and built by Narco Bio-Systems-(Model MK-IV). Groups consisting of 4 rats receive a single oral dose of the test compound. Rats are warmed in a heated chamber at 38° C. for 10 minutes prior to measurement of systolic pressure to increase the accuracy of measurements.
The systolic pressure and heart rate data are collected in an Hewlett Packard 88 computer. Data are grouped and summarized, with the mean change in pressure and heart rate at each time period calculated.
Unless otherwise noted, the compound was tested in the form in which it was obtained in the example.

male CF-1 mice = assay: Antagonism of apomorphine-induced stereotyped behavior in mice; assay type: in vivo, mouse; details: apomorphine 10 mg/kg s.c.
Protocol: In the second procedure, the compound's (drug's) abiltiy to antagonize apomorphine-induced stereotyped behavior in mice is measured. In the procedure, 20-25 g male CF-1 mice (Charles River) are tested one week before the experiment for a positive stereotyped response to 10 mg/kg s.c. apomorphine. Test compounds, suspended or solubilized in 0.25% Tween 80 ® in water, are administered at several dose levels to male mice (6/dose level). A control group, run simultaneously with drug groups, receives equal volumes of solvent. Thiry minutes later (i.p. administration) or 60 minutes later (p.o administration), drug-treated and control mice are challenged with 10 mg/kg apomorphine s.c. Five minutes after the injection, the rearing-head-bobbing-licking syndrome induced by apomorphine is recorded as present or absent for each animal. Readings are repeated every 5 minutes during a 30 minute test session. The number of positive or negative 5-minute intervals during which apoomorphine-induced stereotyped behavior is present or absent. ED50 values (with 95% confidence intervals) are calculated for inhibition of apomorphine-inducedstereotyped behavior, by a simple linear regression analysis with inverse prediction.

[2] = biological target: T1, limbic D-2 dopamine receptor (Rattus norvegicus, UniProt P61169); assay: Inhibition of limbic D-2 dopamine receptor binding (3H-spiroperidol, rat limbic brain homogenate); details: 0.3 nM 3H-spiroperidol, read-out: Ki (and 95% confidence interval)
T1 construct: Limbic brain tissue (nucleus accumbens, septal area, olfactory tubercle) is dissected and homogenized on ice; from tissue; host or cells: rat limbic brain tissue (nucleus accumbens, septal area, olfactory tubercle), washed membrane homogenate
Protocol: Several rats are decapitated and the brains are rapidly removed. […] The homogenate is then diluted 4-fold with buffer and centrifuged at 30,000×g for 20 min, and the supernatant is discarded. The pellet is resuspended in the same volume of buffer and recentrifuged as before, again discarding the supernatant. This pellet is then resuspended in the same volume of buffer used in the homogenization, and the protein content of this preparation is assayed by the Lowry method. The homogenate is stored frozen at -70° C. until use.
The vials are then counted in a Packard 460CD scintillation counter.
Specific binding is defined as total binding less binding in the presence of 1 μM (+)butaclamol. Binding in the presence of various concentrations of test drug is expressed as a percent of specific binding when no drug is present. […] Linear regression analysis then yields a straight line with 95% confidence limits from which an IC50 can be inversely predicted. Ki (inhibition constant) for the test drug is then calculated by the formula: [formula]

[3] = SHR, single oral dose 50 mg/kg, 1.5 hrs.
[4] = SHR, single oral dose 50 mg/kg, 4 hrs.
[5] = SHR, single oral dose 10 mg/kg, 1.5 hrs.
[6] = SHR, single oral dose 10 mg/kg, 4 hrs.

T1 sequence (P61169 whole entry): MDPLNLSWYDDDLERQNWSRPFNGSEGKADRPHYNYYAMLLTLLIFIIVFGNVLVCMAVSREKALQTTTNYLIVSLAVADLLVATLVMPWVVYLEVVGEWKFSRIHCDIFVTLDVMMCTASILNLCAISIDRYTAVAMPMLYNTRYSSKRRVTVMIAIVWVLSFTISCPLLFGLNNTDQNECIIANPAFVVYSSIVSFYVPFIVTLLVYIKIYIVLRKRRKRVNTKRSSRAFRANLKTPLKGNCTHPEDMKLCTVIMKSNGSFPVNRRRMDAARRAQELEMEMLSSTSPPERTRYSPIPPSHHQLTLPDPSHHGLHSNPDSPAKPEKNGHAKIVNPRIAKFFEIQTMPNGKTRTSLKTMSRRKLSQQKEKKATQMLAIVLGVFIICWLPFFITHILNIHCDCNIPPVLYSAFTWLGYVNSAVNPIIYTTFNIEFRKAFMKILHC

Cl.Cl.c1ccc2nc(CCCCN3CCc4c([nH]c5ccccc45)C3)ccc2c1 [Example 8, 2,3,4,9-Tetrahydro-2-[4-(2-Quinolinyl)butyl]1H-Pyrido[3,4-b]Indole, Dihydrochloride]
ED50 (rats): 31 mg/kg

c1ccc(CCN2CCc3c([nH]c4ccccc34)C2)nc1 [Example 9, 2,3,4,9-Tetrahydro-2-[2-(2-Pyridinyl)ethyl]-1H-pyrido[3,4-b]-indole, Dihydrochloride.]
ED50 (rats): 22.6 mg/kg

Cl.Cl.c1ccc2c(CCCCN3CCc4c([nH]c5ccccc45)C3)ccnc2c1 [Example 6, 2,3,4,9-Tetrahydro-2-[4-(4-Quinolinyl)butyl]-1H-Pyrido[3,4-b]Indole, Dihydrochloride]
Change in Blood Pressure [1, 3]: -94 mm of Hg.

Cl.Cl.c1ccc2c3c([nH]c2c1)CN(CCc1cnccn1)CC3 [Example 7, 2,3,4,9-Tetrahydro-2-[2-(2Pyrazinyl)ethyl]-1H-Pyrido[3,4-b]Indole, Dihydrochloride]
Change in Blood Pressure ([1]; SHR, single oral dose 5 mg/kg, 1.5 hrs.): -14 mm of Hg. | Change in Blood Pressure [1, 3]: -110 mm of Hg. | Change in Blood Pressure [1, 4]: -104 mm of Hg.

c1ccc2c3c([nH]c2c1)CN(Cc1ccncc1)CC3 [Example 1, 2,3,4,9-Tetrahydro-2-(4-Pyridinylmethyl)-1H-Pyrido-[3,4-b]Indole, Dihydrochloride Hemihydrate]
Change in Blood Pressure [1, 3]: -27 mm of Hg. | Change in Blood Pressure [1, 4]: -35 mm of Hg.

Cl.Cl.c1ccc2nc(CN3CCc4c([nH]c5ccccc45)C3)ccc2c1 [2,3,4,9-tetrahydro-2-(2-quinolinylmethyl)-1H-pyrido[3,4-b]-indole, dihydrochloride, reference compound]
Change in Blood Pressure ([1]; 50 mg/kg, time not stated, did not lower blood pressure significantly): -10 mm Hg

Cl.Cl.c1ccc2c3c([nH]c2c1)CN(CCCCc1ccncc1)CC3 [Example 4, 2,3,4,9-Tetrahydro-2-[4-(4-Pyridinyl)butyl]-1H-Pyrido[3,4-b]Indole Dihydrochloride]
Change in Blood Pressure [1, 5]: -43 mm of Hg. | Change in Blood Pressure [1, 6]: -39 mm of Hg. | Change in Blood Pressure [1, 3]: -105 mm of Hg. | Change in Blood Pressure [1, 4]: -115 mm of Hg. | ED50 (rats): 14.1 mg/kg

Cl.Cl.c1ccc2nc(CCN3CCc4c([nH]c5ccccc45)C3)ccc2c1 [Example 5, 2,3,4,9-Tetrahydro-2-[2-(2-Quinolinyl)ethyl]-1H-Pyrido[3,4-b]Indole Dihydrochloride]
Change in Blood Pressure [1, 5]: -25 mm of Hg. | Change in Blood Pressure [1, 3]: -98 mm of Hg. | Change in Blood Pressure [1, 4]: -84 mm of Hg. | minimal effective dose (rats; read-out: dose down to which the avoidance response is blocked in a dose dependant manner): ≤ 15 mg/kg | ED50 (male CF-1 mice; Mus musculus, ip, read-out: ED50 for inhibition of apomorphine-induced stereotyped behavior): 18 mg/kg | ED50 for inhibition of apomorphine-induced stereotyped behavior (male CF-1 mice; i.p., Dihydrochloride): 20.37 mg/kg | Ki [2]: 166 nM

Cl.Cl.O.c1ccc2c3c([nH]c2c1)CN(CCCCCCCc1ccncc1)CC3 [Example 3, 2,3,4,9-Tetrahydro-2-[7-(4-Pyridinyl)heptyl]-1H-Pyrido[3,4-b]Indole, Dihydrochloride Hydrate]
Change in Blood Pressure [1, 3]: -44 mm of Hg. | Change in Blood Pressure [1, 4]: -58 mm of Hg.

Cl.Cl.c1ccc2c3c([nH]c2c1)CN(CCc1ccncc1)CC3 [Example 2, 2,3,4,9-Tetrahydro-2-[2-(4-Pyridinyl)ethyl]-1H-Pyrido[3,4-b]Indole, Dihydrochloride]
Change in Blood Pressure [1, 5]: -73 mm of Hg. | Change in Blood Pressure [1, 6]: -30 mm of Hg. | Change in Blood Pressure ([1]; SHR, single oral dose 25 mg/kg, 1.5 hrs.): -18 mm of Hg. | Change in Blood Pressure ([1]; SHR, single oral dose 25 mg/kg, 4 hrs.): -58 mm of Hg. | Change in Blood Pressure [1, 3]: -79 mm of Hg. | Change in Blood Pressure [1, 4]: -57 mm of Hg.

Cl.Cl.c1cncc(CCCN2CCc3c([nH]c4ccccc34)C2)c1 [Example 13, 2,3,4,9-Tetrahydro-2-[3-(3-Pyridinyl)propyl]1H-pyrido[3,4-b]indole, dihydrochloride]
ED50 (rats): 20.9 mg/kg
